Results as given in patent publication US10668076B1, “Compositions and methods of targeting mutant K-Ras” (NantBio, Inc., priority 2011, dated 2020).

Test system: K-Ras wild type expressing 293 cells
Conditions: FIG. 6B
Method: SW480 and HT29 cells are both propagated at 37° C./5% CO2 and in RPMI+10% fetal bovine serum (FBS) and DMEM+10% FBS, respectively. Upon plating cells in microtiter plates, compounds are supplemented at various concentrations and viability is assessed within 24-72 hrs by manual or automated (Countess (Invitrogen)) trypan blue cytometry.

## Cc1ccc(Nc2nc(N/N=C/c3cccc([N+](=O)[O-])c3O)nc(N3CCOCC3)n2)cc1 [A0383, 2-(hydroxynitroso)-6-[(1E)-(2-{4-[(4-methylphenyl)amino]-6-(morpholin-4-yl)-1,3,5-triazin-2-yl}hydrazin-1-ylidene)methyl]phenol]
293 cells not overexpressing mutant K-Ras, dosages 50-100 µM
  general toxicity: lack of general toxicity
read-out: IC50 (cell death, unspecific toxicity), K-Ras wild type expressing 293 cells
  IC50: > 100 µM
